According to patent publication US6156700A, “3-(1,2-Benzisothiazol- and isoxazol-5-yl)-2,4(1H,3H)-pyrimidinedione or thione and 3-(1,2-benzisothiazol- and isoxazol-5-yl)-4(3H)-pyrimidinone or thione herbicidal agents” (American Cyanmid Company, priority 1998, dated 2000):

Tests used:
[1] = tested on: Foxtail, Green, Setaria viridis; assay: Postemergence herbicidal evaluation, SETVI; type: in vivo, (L.) Beau
Procedure, shortened: (§1)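 Plants were raised for roughly two weeks, then treated by spraying at 40 psi with test compound dispersed in 50/50 acetone/water with 0.5% TWEEN 20, giving about 0.0157 to 0.500 kg/ha. After four to five weeks in the greenhouse they were scored 0–9 against a control.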

[2] = tested on: Wheat, Winter, cv Riband, Triticum aestivum; assay: Preemergence herbicidal evaluation, TRZAWR; type: in vivo; conditions: 0.2500 kg/ha
Procedure, shortened: (§2)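 Seeds sown in potting soil in cups, then sprayed preemergence with compound in aqueous acetone at about 0.0156 to 0.500 kg per hectare. Greenhouse-grown; rated visually 4–5 weeks after treatment on a 0–9 scale (stand, vigor, malformation, size, chlorosis, appearance) versus untreated control.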

[3] = tested on: Lambsquarters, Common, Chenopodium album; assay: Postemergence herbicidal evaluation, CHEAL; type: in vivo, L.
Procedure, shortened: as §1

Galium, Galium aparine = assay: Preemergence herbicidal evaluation, GALAP; type: in vivo; conditions: 0.2500 kg/ha
Procedure, shortened: as §2

[4] = tested on: Morningglory Spp., Ipomoea Spp.; assay: Preemergence herbicidal evaluation, IPOSS; type: in vivo; conditions: 0.2500 kg/ha
Description: (§3) Results of herbicide evaluation are expressed on a rating scale (0-9). The scale is based upon a visual observation of plant stand, vigor, malformation, size, chlorosis and overall plant appearance as compared with a control.
(§4) The preemergence herbicidal activity of the test compounds of the present invention is exemplified by the following tests in which the seeds of a variety of monocotyledonous and dicotyledonous plants are separately mixed with potting soil and planted on top of approximately one inch of soil in separate pint cups. After planting, the cups are sprayed with the selected aqueous acetone solution containing test compound in sufficient quantity to provide the equivalent of about 0.0156 to 0.500 kg per hectare of test compound per cup. The treated cups are then placed on greenhouse benches, watered and cared for in accordance with conventional greenhouse procedures. From four to five weeks after treatment, the tests are terminated and each cup is examined and rated according to the rating system provided in Example 185.
(§5) The compounds evaluated are reported by compound number given in Example 185.

CYPSE Flatsedge [5] = assay: Preemergence weed control, flooded paddy (Table III); type: in vivo, Cyperus serotinus; set-up: scale not given here
Procedure: (§6) Preemergence herbicidal activity under flooded paddy conditions is determined as follows: plant seeds or propagating organs are planted in the top 0.5 cm of silt loam soil in 32 oz. plastic containers with a diameter of 10.5 cm and no drainage holes. Water is added to these containers and maintained at 1.5 to 3 cm above the soil surface for the duration of the experiment. The test compounds are applied as aqueous/acetone mixtures 50/50 v/v pipetted directly into the flood water to give the equivalent of about 0.0313 to 0.500 kg/ha of active ingredient. The treated containers are placed on greenhouse benches and cared for in accordance with conventional greenhouse procedures. Three to four weeks after treatment, the test is terminated and each container is examined and herbicidal effect rated according to the rating system provided in Example 185. The compounds evaluated are reported by compound number given in Example 185.

CYPIR Rice Flatsedge = assay: Postemergence weed control, flooded paddy (Table IV); type: in vivo, Cyperus iria; set-up: scale not given here
Procedure, shortened: (§7)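 Rating scale scores taken 3–4 weeks post-treatment; compounds dosed in flood water (~0.0313–0.500 kg/ha) onto weeds 3–5 cm tall and 1.5–2.5 leaf rice under 1.5–3 cm standing water.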

[6] = tested on: Sicklepod, Cassia obtusifolia; assay: Preemergence herbicidal evaluation, CASOB; type: in vivo, L.; conditions: 0.2500 kg/ha
Procedure, shortened: as §2

[7] = tested on: SAGPY Arrowhead (Pygmaea); assay: Preemergence weed control, flooded paddy (Table III); type: in vivo, Sagittaria pygmaea; set-up: scale not given here
Procedure: as §6

ORYSAT Rice, Tebonnet = assay: Rice tolerance, flooded paddy (Table IV); type: in vivo, Oryza sativa; set-up: scale not given here; conditions: crop tolerance
Procedure, shortened: as §7

[8] = tested on: Morningglory, Ivyleaf, Ipomoea hederacea; assay: Preemergence herbicidal evaluation, IPOHE; type: in vivo, (L.) Jacq.; conditions: 0.2500 kg/ha
Description: as §3, §4, §5

[9] = tested on: Rice, Tebonnet, Oryza sativa; assay: Postemergence herbicidal evaluation, ORYSAT; type: in vivo, (L.) Tebonnet
Procedure, shortened: as §1

[10] = tested on: Soybean, Williams, Glycine max; assay: Postemergence herbicidal evaluation, GLXMAW; type: in vivo, (L.) Merr. cv Williams
Procedure, shortened: as §1

CYPSE Flatsedge [11] = assay: Postemergence weed control, flooded paddy (Table IV); type: in vivo, Cyperus serotinus; set-up: scale not given here
Procedure, shortened: as §7

Soybean, Glycine max = assay: Postemergence herbicidal evaluation, GLXMA; type: in vivo, (L.) Merr.; conditions: 0.2500 kg/ha
Procedure: In the tests, seedling plants are grown in jiffy flats for about two weeks. The test compounds are dispersed in 50/50 acetone/water mixtures containing 0.5% TWEEN®20, a polyoxyethylene sorbitan monolaurate surfactant of Atlas Chemical Industries, in sufficient quantities to provide the equivalent of about 0.0157 kg to 0.500 kg per hectare of active compound when applied to the plants through a spray nozzle operating at 40 psi for a predetermined time. After spraying, the plants are placed on greenhouse benches and are cared for in accordance with conventional greenhouse procedures. From four to five weeks after treatment, the seedling plants are examined and rated according to the rating system set forth below. Where more than one test is involved for a given compound, the data are averaged.
as §3

[12] = tested on: SAGPY Arrowhead (Pygmaea); assay: Postemergence weed control, flooded paddy (Table IV); type: in vivo, Sagittaria pygmaea; set-up: scale not given here
Procedure, shortened: as §7

Corn, Field, Zea mays = assay: Postemergence herbicidal evaluation, ZEAMX; type: in vivo, L.
Procedure, shortened: as §1

MOOVA Monochoria = assay: Preemergence weed control, flooded paddy (Table III); type: in vivo, Monochoria vaginalis; set-up: scale not given here
Procedure: as §6

[13] = tested on: Barnyardgrass, Echinochloa crus-galli; assay: Postemergence herbicidal evaluation, ECHCG; type: in vivo, (L.) Beau
Procedure, shortened: as §1

[14] = tested on: Lambsquarters, Common, Chenopodium album; assay: Preemergence herbicidal evaluation, CHEAL; type: in vivo, L.; conditions: 0.2500 kg/ha
Procedure, shortened: as §2

[15] = tested on: Wheat, Winter, cv Riband, Triticum aestivum; assay: Postemergence herbicidal evaluation, TRZAWR; type: in vivo
Procedure, shortened: as §1

COc1ccc(C)cc1-c1nsc2ccc(-n3c(=O)cc(C(F)(F)F)n(C)c3=O)cc12 [Compound 1, 3-[3-(6-Methoxy-m-tolyl)-1,2-benzisothiazol-5-yl]-1-methyl-6-(trifluoromethyl)-2,4(1H,3H)-pyrimidinedione]
herbicide rating (0-9) ([1]; 0.0630 kg/ha): 9.0 | herbicide rating (0-9) ([1]; 0.2500 kg/ha): 9.0 | herbicide rating (0-9) [2]: 6.0 | herbicide rating (0-9) ([3]; 0.0630 kg/ha): 9.0 | herbicide rating (0-9) ([3]; 0.2500 kg/ha): 9.0 | herbicide rating (0-9) (Galium, Galium aparine): 9.0 | herbicide rating (0-9) [4]: 4.0 | herbicidal effect rating (CYPSE Flatsedge [5]; 0.0313 kg/ha): 1.3 | herbicidal effect rating (CYPSE Flatsedge [5]; 0.0625 kg/ha): 3.0 | herbicidal effect rating (CYPSE Flatsedge [5]; 0.1250 kg/ha): 6.0 | herbicidal effect rating (CYPSE Flatsedge [5]; 0.2500 kg/ha): 9.0 | herbicidal effect rating (CYPSE Flatsedge [5]; 0.5000 kg/ha): 8.0 | herbicidal effect rating (CYPIR Rice Flatsedge; 0.1250 kg/ha): 9.0 | herbicidal effect rating (CYPIR Rice Flatsedge; 0.2500 kg/ha): 9.0 | herbicidal effect rating (CYPIR Rice Flatsedge; 0.5000 kg/ha): 9.0 | herbicide rating (0-9) [6]: 9.0 | herbicidal effect rating ([7]; 0.0313 kg/ha): 3.3 | herbicidal effect rating ([7]; 0.0625 kg/ha): 5.0 | herbicidal effect rating ([7]; 0.1250 kg/ha): 6.7 | herbicidal effect rating ([7]; 0.2500 kg/ha): 8.3 | herbicidal effect rating ([7]; 0.5000 kg/ha): 8.5 | herbicidal effect rating (ORYSAT Rice, Tebonnet; 0.1250 kg/ha): 4.0 | herbicidal effect rating (ORYSAT Rice, Tebonnet; 0.2500 kg/ha): 6.0 | herbicidal effect rating (ORYSAT Rice, Tebonnet; 0.5000 kg/ha): 7.0 | herbicide rating (0-9) [8]: 8.0 | herbicide rating (0-9) ([9]; 0.0630 kg/ha): 4.3 | herbicide rating (0-9) ([9]; 0.2500 kg/ha): 5.0 | herbicide rating (0-9) ([10]; 0.0630 kg/ha): 6.0 | herbicide rating (0-9) ([10]; 0.2500 kg/ha): 7.0 | herbicidal effect rating (CYPSE Flatsedge [11]; 0.1250 kg/ha): 3.0 | herbicidal effect rating (CYPSE Flatsedge [11]; 0.2500 kg/ha): 5.5 | herbicidal effect rating (CYPSE Flatsedge [11]; 0.5000 kg/ha): 6.5 | herbicide rating (0-9) (Soybean, Glycine max): 9.0 | herbicidal effect rating ([12]; 0.1250 kg/ha): 0.0 | herbicidal effect rating ([12]; 0.2500 kg/ha): 1.0 | herbicidal effect rating ([12]; 0.5000 kg/ha): 3.0 | herbicide rating (0-9) (Corn, Field, Zea mays; 0.0630 kg/ha): 6.0 | herbicide rating (0-9) (Corn, Field, Zea mays; 0.2500 kg/ha): 7.0 | herbicidal effect rating (MOOVA Monochoria; 0.0313 kg/ha): 9.0 | herbicidal effect rating (MOOVA Monochoria; 0.0625 kg/ha): 9.0 | herbicidal effect rating (MOOVA Monochoria; 0.1250 kg/ha): 9.0 | herbicidal effect rating (MOOVA Monochoria; 0.2500 kg/ha): 9.0 | herbicidal effect rating (MOOVA Monochoria; 0.5000 kg/ha): 9.0 | herbicide rating (0-9) ([13]; 0.0630 kg/ha): 7.0 | herbicide rating (0-9) ([13]; 0.2500 kg/ha): 9.0 | herbicide rating (0-9) [14]: 9.0 | herbicide rating (0-9) ([15]; 0.0630 kg/ha): 5.3 | herbicide rating (0-9) ([15]; 0.2500 kg/ha): 5.5
